# Laboratory results published in US20240360247A1, “COMPOSITIONS AND METHODS FOR TREATMENT OF CANCER” (Johns Hopkins University, priority 2021, published 2024).
# Tests used:
# UGCG = biological target: T1, UGCG (Homo sapiens, UniProt Q16739); experiment: Effect of D-PDMP on IHC localization of glycosyltransferases in human CRC cells (UGCG); assay type: cell-based; conditions: HCT-116, 10p M D-PDMP, 24 h, vs control
# T1 construct: endogenous in cells; host or cells: HCT-116
# T1 sequence (Q16739 1-394): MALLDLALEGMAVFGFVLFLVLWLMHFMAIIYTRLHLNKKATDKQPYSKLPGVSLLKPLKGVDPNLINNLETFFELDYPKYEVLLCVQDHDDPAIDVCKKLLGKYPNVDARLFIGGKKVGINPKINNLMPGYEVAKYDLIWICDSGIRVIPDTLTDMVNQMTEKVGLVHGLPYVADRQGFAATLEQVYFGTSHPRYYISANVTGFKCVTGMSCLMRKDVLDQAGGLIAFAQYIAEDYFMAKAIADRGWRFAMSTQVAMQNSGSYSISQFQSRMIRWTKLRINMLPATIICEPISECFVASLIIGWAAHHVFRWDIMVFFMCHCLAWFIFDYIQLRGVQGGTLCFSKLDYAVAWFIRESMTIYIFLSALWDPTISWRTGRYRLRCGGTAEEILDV
# Experimental: (§1) HCT-116 cells were seeded (10^4) onto sterilized glass coverslips, which were then placed in 6-well sterile plastic trays and grown for 24 h in complete media. Next, the media was replaced with 2 mL of 2% serum-containing media, plus […] D-PDMP. After incubation for 24 and 96 h, the media was removed, and cells were fixed with ethanol, washed, incubated with antibody against β-1,4-GalT-V or UGCG, and photographed.
# renal cancer = conditions: mouse, in vivo; cited from earlier work
# human endothelial cells = conditions: cited from earlier work
# HCT-116 cells [1] = experiment: Effect of D-PDMP on cell proliferation (3H-thymidine incorporation); assay type: cell-based, human
# Experimental: HCT-116 cells were seeded (10^4/well) in 96-well sterile plastic plates, and grown for 24 h in complete medium, with 10% fetal calf serum. The media was then replaced with 2% serum-containing media (100 μL) plus ^3H-thymidine ([…]), with and without D-PDMP. After another 24 h incubation, incorporation of ^3H-thymidine into DNA was measured by scintillation spectrometry.
# HCT-116 cells [2] = experiment: LC-MS sphingolipid levels in HCT-116 cells; assay type: cell-based, human; conditions: D-PDMP 10 μM, 24 h, vs control
# Experimental: HCT-116 cells were seeded ([…]) onto sterilized (100-mm^2) plastic Petri dishes in 10 mL of medium for 24 h. Media was then changed to 2% serum-containing media, with and without D-PDMP (10 μM). After 24 h, media was removed, and total lipids were extracted, using hexane-isopropanol (3:2, by volume) in the presence of sphingolipid internal standards, and subject to MS. […] Data represent averages±SEm, N=3 biological replicates for control and 10 μM D-PDMP in (FIGS. 4A-4H), and the unpaired t-tested was used for statistical analysis.*P≤0.05,**P≤0.01]\
# Sphingolipid levels in human CRC tissue and in human cultured CRC cells (HCT-116) were measured by LC-MS, as described previously (23). Visibly normal and CRC tissues (50 mg) were homogenized in chloroform-methanol (2:1), in the presence of sphingolipid internal standards. […] HCT-116 cells were grown in 100 mm^2 sterile, plastic Petri dishes. Lipid extracts were subject to LC-MS, as described (24, 25).
# [3] = tested on: human colorectal cancer cells (HCT-116); experiment: [89Zr] GalT-V antibody binding and internalization (gamma counter); assay type: cell-based; conditions: HCT-116 pre-incubated with D-PDMP 20 uM
# Experimental: Cell cultures were incubated with increasing concentrations of [^89Zr] GalT-V antibody, washed and radioactivity was measured in an automated gamma counter (1282 Compu-gamma CS, Pharmacia/LKB Nuclear, Inc.).
# Cell cultures were incubated with increasing concentrations of [^89Zr] GalT-V antibody, washed and radioactivity was measured in a gamma counter. […] GalT-V antibody binding in human coronary arterial endothelial cells (HCAEC) and human colorectal cancer cells (HCT-116) after 2-hour incubation at 37° C.
# Cells were pre-incubated with and without an inhibitor of GalT-V, D-PDMP (20 uM), followed by the measurement of binding and internalization of [^89Zr] GalT-V antibody. […] GalT-V antibody (n=3, p**=0.0079).
# Cells were incubated in the presence of excess unlabeled (cold, 50 ug/mL) GalT-V antibody as well as [^89Zr] GalT-V Ab. […] (n=3, p****=<0.0001). Results are shown in FIG. 24 which depicts specificity of binding and internalization of [^89Zr] GalT-V antibody in human colorectal cancer cells (HCT-116).
# β-1,4-GalT-V = biological target: T2, β-1,4-GalT-V (Homo sapiens, UniProt O43286); experiment: Effect of D-PDMP on IHC localization of glycosyltransferases in human CRC cells (β-1,4-GalT-V); assay type: cell-based; conditions: HCT-116, D-PDMP, 24 and 96 h, vs controls
# T2 construct: endogenous in cells; host or cells: HCT-116
# T2 sequence (O43286 1-388): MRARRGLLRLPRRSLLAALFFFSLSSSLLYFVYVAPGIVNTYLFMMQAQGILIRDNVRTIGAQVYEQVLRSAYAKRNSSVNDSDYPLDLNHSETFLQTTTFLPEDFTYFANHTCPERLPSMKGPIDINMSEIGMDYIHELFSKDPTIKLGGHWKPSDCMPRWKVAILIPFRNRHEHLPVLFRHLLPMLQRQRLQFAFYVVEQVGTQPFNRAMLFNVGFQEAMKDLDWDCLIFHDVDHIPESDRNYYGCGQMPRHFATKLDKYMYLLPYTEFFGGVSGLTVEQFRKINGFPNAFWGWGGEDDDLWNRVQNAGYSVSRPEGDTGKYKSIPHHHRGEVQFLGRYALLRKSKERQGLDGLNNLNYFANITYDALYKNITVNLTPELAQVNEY
# Experimental: as §1
smiles,measurement,setting,value
"CCCCCCCCCC(=O)N[C@H](CN1CCOCC1)[C@H](O)c1ccccc1 [D-PDMP, D-threo-1-phenyl-2-decanoylamino-3-morpholino-1-propanol]",UGCG immunofluorescence,UGCG,No difference
same,GalT-V mass,renal cancer,markedly reduced
same,tumor volume,renal cancer,markedly reduced tumor volume
same,angiogenesis,human endothelial cells,reduced angiogenesis
same,proliferation of HCT-116 cells,"HCT-116 cells [1]; 24 and 96 h, compared to control cells","dose- and time-dependent (FIGS. 3A, 3B) decrease in proliferation"
same,maximal effective dose (decrease in proliferation),"HCT-116 cells [1]; HCT-116, 24 and 96 h",20 µM
same,level of Cer,HCT-116 cells [2],reduced levels
same,level of DHCer,HCT-116 cells [2],reduced levels
same,level of DHLacCer,HCT-116 cells [2],reduced levels
same,level of dihexosylceramide,HCT-116 cells [2],reduced levels
same,level of dihydroGalCer/dihydroGlcCer,HCT-116 cells [2],reduced levels
same,level of monohexosylceramides,HCT-116 cells [2],reduced levels
same,effect on binding and internalization of [89Zr] GalT-V antibody,[3],reduced the binding and internalization
same,GalT-V fluorescence,"β-1,4-GalT-V",reduced GalT-V fluorescence
